From the supplement of paper PMC12076712 come the findings set out here.

Holding throughout (test): pIC50, kinobeads binding competition
For assay [1], the target named is DYRK1B (UniProt Q9Y463). The procedure, abridged: (§1)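 Live Jurkat cells were treated with nine compound concentrations (top 30 μM, 1:4 steps) or DMSO for 60 min at 37 °C before lysis. Alternatively, Jurkat lysate or a 1:1:1:1 HEK293/K-562/HepG2/placenta lysate mix was incubated with nine concentrations (top 30 μM, 1:5 steps) for 60 min at 4 °C. Kinobeads-bound proteins were digested and quantified by TMT10 LC-MS/MS. pIC50 came from logistic dose-response fits (R drc package) of fold changes versus DMSO, in biological duplicates.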

In assay [2] the target is T1, MAP4K2 (UniProt Q12851).
T1 sequence (whole entry): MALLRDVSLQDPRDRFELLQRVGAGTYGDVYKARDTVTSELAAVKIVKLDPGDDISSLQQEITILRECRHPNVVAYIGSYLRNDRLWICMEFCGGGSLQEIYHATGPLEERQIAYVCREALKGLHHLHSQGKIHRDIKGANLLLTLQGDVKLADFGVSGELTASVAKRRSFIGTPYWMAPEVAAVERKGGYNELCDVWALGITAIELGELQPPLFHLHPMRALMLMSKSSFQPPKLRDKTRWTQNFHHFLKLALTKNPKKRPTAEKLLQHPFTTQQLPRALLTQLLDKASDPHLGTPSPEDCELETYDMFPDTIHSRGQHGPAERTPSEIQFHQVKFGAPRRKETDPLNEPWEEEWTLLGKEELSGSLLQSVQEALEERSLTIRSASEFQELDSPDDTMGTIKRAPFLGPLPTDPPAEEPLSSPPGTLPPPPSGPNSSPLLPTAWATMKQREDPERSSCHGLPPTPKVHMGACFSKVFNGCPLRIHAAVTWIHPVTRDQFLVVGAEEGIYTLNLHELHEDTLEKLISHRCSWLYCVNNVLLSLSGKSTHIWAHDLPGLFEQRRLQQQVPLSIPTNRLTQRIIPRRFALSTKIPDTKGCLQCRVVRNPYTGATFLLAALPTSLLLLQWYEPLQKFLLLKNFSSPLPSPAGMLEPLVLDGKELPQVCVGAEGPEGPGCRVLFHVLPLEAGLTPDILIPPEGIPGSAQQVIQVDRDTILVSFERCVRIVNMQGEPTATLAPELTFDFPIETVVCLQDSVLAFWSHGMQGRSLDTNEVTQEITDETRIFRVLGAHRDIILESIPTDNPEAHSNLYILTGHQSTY
The gist of the method: as §1

Assay [3] deals with T2, NEK9 (UniProt Q8TD19).
T2 sequence (whole entry): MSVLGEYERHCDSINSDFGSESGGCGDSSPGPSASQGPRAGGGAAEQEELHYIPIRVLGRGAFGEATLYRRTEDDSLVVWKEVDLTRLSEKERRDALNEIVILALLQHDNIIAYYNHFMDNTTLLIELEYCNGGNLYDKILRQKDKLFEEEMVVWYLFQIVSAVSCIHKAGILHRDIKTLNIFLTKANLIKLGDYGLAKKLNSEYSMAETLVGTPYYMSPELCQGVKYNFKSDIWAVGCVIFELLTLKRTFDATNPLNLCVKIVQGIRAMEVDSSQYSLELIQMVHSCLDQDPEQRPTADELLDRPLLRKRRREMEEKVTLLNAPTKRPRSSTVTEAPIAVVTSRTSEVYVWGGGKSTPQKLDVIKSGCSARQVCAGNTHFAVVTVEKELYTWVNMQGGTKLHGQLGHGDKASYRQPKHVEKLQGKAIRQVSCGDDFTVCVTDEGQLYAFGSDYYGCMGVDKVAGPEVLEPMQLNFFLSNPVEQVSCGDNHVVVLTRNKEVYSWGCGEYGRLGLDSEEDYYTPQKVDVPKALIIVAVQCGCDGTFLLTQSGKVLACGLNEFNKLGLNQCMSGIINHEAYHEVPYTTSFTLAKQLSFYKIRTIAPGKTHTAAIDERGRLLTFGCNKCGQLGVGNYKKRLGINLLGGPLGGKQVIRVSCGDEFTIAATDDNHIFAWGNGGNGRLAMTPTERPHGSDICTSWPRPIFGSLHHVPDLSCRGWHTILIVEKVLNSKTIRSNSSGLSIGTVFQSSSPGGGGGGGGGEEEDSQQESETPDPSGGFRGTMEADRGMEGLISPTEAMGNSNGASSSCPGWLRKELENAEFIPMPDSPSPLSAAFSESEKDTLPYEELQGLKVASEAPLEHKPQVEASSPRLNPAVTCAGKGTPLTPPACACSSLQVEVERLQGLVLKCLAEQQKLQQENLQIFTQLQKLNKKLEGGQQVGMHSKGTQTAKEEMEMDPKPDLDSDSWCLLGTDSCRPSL
The gist of the method:
as §1

Assay [4] addresses T3, PHKG2 (UniProt P15735).
T3 sequence (whole entry): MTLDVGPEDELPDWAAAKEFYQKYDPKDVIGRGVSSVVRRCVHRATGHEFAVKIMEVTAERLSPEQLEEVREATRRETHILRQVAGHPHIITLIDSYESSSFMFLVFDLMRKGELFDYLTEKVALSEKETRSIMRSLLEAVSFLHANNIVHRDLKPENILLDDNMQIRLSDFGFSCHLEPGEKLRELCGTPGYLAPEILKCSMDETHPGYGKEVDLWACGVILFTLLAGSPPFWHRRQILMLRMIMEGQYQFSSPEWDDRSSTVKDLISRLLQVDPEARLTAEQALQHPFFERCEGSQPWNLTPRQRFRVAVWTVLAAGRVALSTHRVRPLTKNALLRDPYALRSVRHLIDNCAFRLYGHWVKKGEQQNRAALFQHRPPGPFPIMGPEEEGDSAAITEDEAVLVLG
The procedure, abridged:
as §1

Assay [5] addresses T4, UniProt O14965.
T4 sequence (whole entry): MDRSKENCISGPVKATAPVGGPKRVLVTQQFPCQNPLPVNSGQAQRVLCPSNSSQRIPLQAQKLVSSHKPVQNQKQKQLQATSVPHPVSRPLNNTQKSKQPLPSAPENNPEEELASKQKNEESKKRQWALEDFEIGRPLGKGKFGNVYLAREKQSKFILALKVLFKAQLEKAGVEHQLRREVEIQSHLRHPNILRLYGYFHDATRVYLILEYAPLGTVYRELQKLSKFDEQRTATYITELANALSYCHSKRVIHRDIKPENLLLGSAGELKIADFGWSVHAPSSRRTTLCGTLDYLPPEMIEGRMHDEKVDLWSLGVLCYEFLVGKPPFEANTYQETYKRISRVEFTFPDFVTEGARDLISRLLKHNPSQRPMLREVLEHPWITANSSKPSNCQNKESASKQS
The procedure, abridged:
as §1

Assay [6] concerns the target UniProt P45983. The procedure, abridged: as §1

Where only a bound is given, the exact number is not on record here.

What is called pIC50 is −log10 of the IC50, conventionally taken in molar units. Read a high pIC50 as a small IC50.

UniProt P45983, sequence (P45983 whole entry): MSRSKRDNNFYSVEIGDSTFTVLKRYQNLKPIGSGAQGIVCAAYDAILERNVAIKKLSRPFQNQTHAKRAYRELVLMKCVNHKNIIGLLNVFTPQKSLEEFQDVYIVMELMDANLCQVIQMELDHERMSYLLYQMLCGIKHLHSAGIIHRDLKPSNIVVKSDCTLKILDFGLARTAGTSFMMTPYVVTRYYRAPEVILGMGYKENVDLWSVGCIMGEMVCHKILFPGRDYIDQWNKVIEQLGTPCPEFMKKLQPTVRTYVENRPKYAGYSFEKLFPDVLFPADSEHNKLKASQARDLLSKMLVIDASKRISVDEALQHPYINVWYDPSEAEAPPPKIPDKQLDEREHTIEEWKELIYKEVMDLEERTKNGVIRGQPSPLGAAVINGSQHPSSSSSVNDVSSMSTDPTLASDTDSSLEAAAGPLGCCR
DYRK1B, sequence (Q9Y463 whole entry, looked up): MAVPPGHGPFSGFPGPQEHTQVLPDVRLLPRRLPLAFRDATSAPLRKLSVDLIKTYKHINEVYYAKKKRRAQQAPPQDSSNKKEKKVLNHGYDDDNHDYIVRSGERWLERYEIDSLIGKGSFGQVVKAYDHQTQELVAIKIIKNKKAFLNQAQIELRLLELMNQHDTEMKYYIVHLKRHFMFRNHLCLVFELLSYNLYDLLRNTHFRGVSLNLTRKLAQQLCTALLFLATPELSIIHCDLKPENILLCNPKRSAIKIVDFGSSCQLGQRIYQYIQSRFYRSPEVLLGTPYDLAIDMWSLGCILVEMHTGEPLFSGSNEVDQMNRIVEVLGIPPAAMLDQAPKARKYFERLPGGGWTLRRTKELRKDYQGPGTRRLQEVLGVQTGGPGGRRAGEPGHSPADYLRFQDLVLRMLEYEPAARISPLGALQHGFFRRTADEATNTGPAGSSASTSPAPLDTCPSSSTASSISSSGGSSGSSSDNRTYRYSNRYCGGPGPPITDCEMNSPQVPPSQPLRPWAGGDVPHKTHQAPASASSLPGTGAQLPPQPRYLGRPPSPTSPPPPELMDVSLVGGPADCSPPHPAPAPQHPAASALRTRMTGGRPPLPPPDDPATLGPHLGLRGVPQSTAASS

Turning to `C#CCNC(=O)c1cc(Nc2cc(C)[nH]n2)nc(N2CCN(Cc3ccc(S(=O)(=O)F)cc3)CC2)n1`, the pIC50 in assay [1] (cell material: Lysate mix) is less than 4.52; in assay [2] (cell material: Lysate mix) it was 4.81; in assay [3] (cell material: Lysate mix), 6.52; in assay [4] (cell material: Lysate mix), less than 4.52; in assay [5] (cell material: Lysate mix), 6.73; in assay [6] (cell material: Lysate mix), 4.6.

Regarding `O=C(NCCNC(=O)c1cc(Nc2cc(C3CC3)[nH]n2)nc(N2CCN(Cc3ccc(S(=O)(=O)F)cc3)CC2)n1)OC1CC/C=C/CCC1` (stereo not given), the negative logarithm of the IC50 (pIC50) in assay [1] (cell material: Jurkat cells) is 4.8; in assay [1] (cell material: Jurkat lysate), less than 4.52; in assay [1] (cell material: Lysate mix) it was less than 4.52; in assay [2] (cell material: Jurkat cells), 5.33; in assay [2] (cell material: Jurkat lysate), less than 4.52; in assay [2] (cell material: Lysate mix), less than 4.52. Moreover, the negative logarithm of the IC50 (pIC50) in assay [3] (cell material: Jurkat cells) was 6.9; in assay [3] (cell material: Jurkat lysate), 5.24; in assay [3] (cell material: Lysate mix), 5.56; in assay [4] (cell material: Jurkat cells), less than 4.52; in assay [4] (cell material: Jurkat lysate) it was less than 4.52; in assay [4] (cell material: Lysate mix), less than 4.52. The negative-log IC50 (pIC50) in assay [5] (cell material: Jurkat cells) is 6.98; in assay [5] (cell material: Jurkat lysate), 5; in assay [5] (cell material: Lysate mix), 5.3; in assay [6] (cell material: Jurkat cells), 4.88; in assay [6] (cell material: Jurkat lysate), less than 4.52; in assay [6] (cell material: Lysate mix), less than 4.52.

As for `CCNC(=O)c1cc(Nc2cc(C3CC3)[nH]n2)nc(N2CCN(Cc3ccc(S(=O)(=O)F)cc3)CC2)n1`, the pIC50 in assay [1] (cell material: Lysate mix) was 5.08; in assay [2] (cell material: Lysate mix) it was 4.88; in assay [3] (cell material: Lysate mix), 7.29; in assay [4] (cell material: Lysate mix), less than 4.52; in assay [5] (cell material: Lysate mix) it was 6.86; in assay [6] (cell material: Lysate mix), 4.65.

Consider `Cc1cc(Nc2cc(C(=O)NCCNC(=O)OC3CC/C=C/CCC3)nc(N3CCN(Cc4ccc(S(=O)(=O)F)cc4)CC3)n2)n[nH]1` (stereo not given), for which the pIC50 in assay [1] (cell material: Lysate mix) was less than 4.52; in assay [2] (cell material: Lysate mix), less than 4.52; in assay [3] (cell material: Lysate mix), 5.2; in assay [4] (cell material: Lysate mix), less than 4.52; in assay [5] (cell material: Lysate mix), 5.39; in assay [6] (cell material: Lysate mix), less than 4.52.

On to `CCNC(=O)c1cc(Nc2cc(C)[nH]n2)nc(N2CCN(Cc3ccc(S(=O)(=O)F)cc3)CC2)n1`, for which the negative logarithm of the IC50 (pIC50) is less than 4.52 in assay [1] (cell material: Lysate mix); 4.7 in assay [2] (cell material: Lysate mix); 7.27 in assay [3] (cell material: Lysate mix); less than 4.52 in assay [4] (cell material: Lysate mix); 7.67 in assay [5] (cell material: Lysate mix); 4.64 in assay [6] (cell material: Lysate mix).

Turning to `C#CCNC(=O)c1cc(Nc2cc(C3CC3)[nH]n2)nc(N2CCN(Cc3ccc(S(=O)(=O)F)cc3)CC2)n1`, the negative-log IC50 (pIC50) in assay [1] (cell material: Jurkat cells) is 5.47; in assay [1] (cell material: Jurkat lysate) it was less than 4.52; in assay [1] (cell material: Lysate mix), less than 4.52; in assay [2] (cell material: Jurkat cells), 5.92; in assay [2] (cell material: Jurkat lysate), 4.56; in assay [2] (cell material: Lysate mix), 5.36. In addition, the pIC50 in assay [3] (cell material: Jurkat cells) was 6.87; in assay [3] (cell material: Jurkat lysate), 6.66; in assay [3] (cell material: Lysate mix), 7.48; in assay [4] (cell material: Jurkat cells), 5.16; in assay [4] (cell material: Jurkat lysate), less than 4.52; in assay [4] (cell material: Lysate mix) it was less than 4.52. Further, the pIC50 in assay [5] (cell material: Jurkat cells) is 7.04; in assay [5] (cell material: Jurkat lysate), 6.25; in assay [5] (cell material: Lysate mix), 7.06; in assay [6] (cell material: Jurkat cells), 5.34; in assay [6] (cell material: Jurkat lysate) it was less than 4.52; in assay [6] (cell material: Lysate mix), 4.72.
